According to PubChem BioAssay (NCI):
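The concentration for 50% growth inhibition is given as GI50. TGI is the concentration that stops growth completely.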

Experiments:
Experiment in all cases: DTP human tumour cell line panel, 384-well format
[1] = tested on: NCI/ADR-RES ovarian
[2] = tested on: NCI-H522 lung
[3] = tested on: HCT-116 colon
[4] = tested on: SK-MEL-5 melanoma
[5] = tested on: SN12C renal
[6] = tested on: ACHN renal
[7] = tested on: NCI-H23 lung
[8] = tested on: SNB-19 CNS
[9] = tested on: HCC-2998 colon
[10] = tested on: NCI-H460 NSCLC
[11] = tested on: RXF 393 renal
[12] = tested on: KM12 colon
[13] = tested on: SK-OV-3 ovarian
[14] = tested on: MCF7 breast
[15] = tested on: M14 melanoma
[16] = tested on: RPMI-8226 leukemia
[17] = tested on: CCRF-CEM leukemia
[18] = tested on: SK-MEL-2 melanoma
[19] = tested on: OVCAR-3 ovarian
[20] = tested on: HL-60(TB) leukemia
[21] = tested on: T-47D breast
[22] = tested on: U251 glioblastoma
[23] = tested on: UACC-62 melanoma
[24] = tested on: A549 NSCLC
[25] = tested on: OVCAR-8 ovarian
[26] = tested on: A498 renal
[27] = tested on: TK-10 renal
[28] = tested on: K-562 leukemia
[29] = tested on: NCI-H226 lung
[30] = tested on: PC-3 prostate
[31] = tested on: NCI-H322M lung
[32] = tested on: HOP-92 NSCLC
[33] = tested on: SF-268 CNS
[34] = tested on: MDA-MB-435 melanoma
[35] = tested on: HT29 colon
[36] = tested on: SK-MEL-28 melanoma
[37] = tested on: HOP-62 NSCLC
[38] = tested on: OVCAR-4 ovarian
[39] = tested on: COLO 205 colon
[40] = tested on: SF-539 CNS
[41] = tested on: SF-295 CNS
[42] = tested on: SW-620 colon
[43] = tested on: BT-549 breast
[44] = tested on: MDA-MB-231 breast
[45] = tested on: OVCAR-5 ovarian
[46] = tested on: MDA-MB-468 breast
[47] = tested on: MOLT-4 leukemia
[48] = tested on: CAKI-1 renal
[49] = tested on: DU-145 prostate
[50] = tested on: UO-31 renal
[51] = tested on: SR leukemia
[52] = tested on: 786-0 renal
[53] = tested on: IGROV1 ovarian
[54] = tested on: HCT-15 colon
[55] = tested on: LOX IMVI melanoma
[56] = tested on: MALME-3M melanoma
[57] = tested on: UACC-257 melanoma

Work on Nc1ccc(/C=C/C(=O)NCc2cc3cc(-c4ccc(C(=O)N5CCC(F)(F)CC5)cc4)cc(-c4ccc(F)cc4)c3o2)cn1 yielded a GI50 [1] of 307 nM, a TGI [1] of 1140 nM and a GI50 [2] of 18.1 nM. For the same molecule, the TGI [2] was 34.8 nM, the GI50 [3] was 20.6 nM and the TGI [3] was 40.7 nM. The GI50 [4] was 174 nM, the TGI [4] was 360 nM and the GI50 [5] was 17.6 nM. For the same molecule, the TGI [5] was 32 nM, the GI50 [6] was 121 nM and the TGI [6] was 348 nM. For the same molecule, the GI50 [7] was 218 nM, the TGI [7] was 430 nM and the GI50 [8] was 28 nM. The TGI [8] was 82 nM, the GI50 [9] was 114 nM and the TGI [9] was 270 nM. For the same molecule, the GI50 [10] was 437 nM, the TGI [10] was 1570 nM and the GI50 [11] was 105 nM. The TGI [11] was 255 nM, the GI50 [12] was 58.6 nM and the TGI [12] was 210 nM. The GI50 [13] was 20.9 nM, the TGI [13] was 49.1 nM and the GI50 [14] was 213 nM. For the same molecule, the TGI [14] was 485 nM, the GI50 [15] was 328 nM and the TGI [15] was 1390 nM. The GI50 [16] was 58.7 nM, the TGI [16] was 191 nM and the GI50 [17] was 21.4 nM. For the same molecule, the TGI [17] was 37.2 nM, the GI50 [18] was 41.4 nM and the TGI [18] was 108 nM. The GI50 [19] was 53.9 nM, the TGI [19] was 217 nM and the GI50 [20] was 22.8 nM. For the same molecule, the TGI [20] was 37.6 nM, the GI50 [21] was 20.1 nM and the TGI [21] was 50.6 nM. The GI50 [22] was 35.6 nM, the TGI [22] was 148 nM and the GI50 [23] was 206 nM. It also gave a TGI [23] of 427 nM, a GI50 [24] of 252 nM and a TGI [24] of 699 nM. The GI50 [25] was 16.8 nM, the TGI [25] was 32.8 nM and the GI50 [26] was 2270 nM. The TGI [26] was 33400 nM, the GI50 [27] was 210 nM and the TGI [27] was 404 nM. For the same molecule, the GI50 [28] was 33.3 nM, the TGI [28] was 175 nM and the GI50 [29] was 7380 nM. For the same molecule, the TGI [29] was over 100000 nM, the GI50 [30] was 48.1 nM and the TGI [30] was 165 nM. It also gave a GI50 [31] of 34.7 nM, a TGI [31] of 139 nM and a GI50 [32] of 441 nM. It also gave a TGI [32] of 1830 nM, a GI50 [33] of 175 nM and a TGI [33] of 325 nM. The GI50 [34] was 146 nM, the TGI [34] was 283 nM and the GI50 [35] was 331 nM. For the same molecule, the TGI [35] was 985 nM, the GI50 [36] was 223 nM and the TGI [36] was 410 nM. For the same molecule, the GI50 [37] was 65.6 nM, the TGI [37] was 242 nM and the GI50 [38] was 212 nM. The TGI [38] was 472 nM, the GI50 [39] was 22.7 nM and the TGI [39] was 53.4 nM. The GI50 [40] was 15.5 nM, the TGI [40] was 30.3 nM and the GI50 [41] was 188 nM. The TGI [41] was 368 nM, the GI50 [42] was 23.9 nM and the TGI [42] was 53.4 nM. For the same molecule, the GI50 [43] was 211 nM, the TGI [43] was 461 nM and the GI50 [44] was 549 nM. It also gave a TGI [44] of 1950 nM, a GI50 [45] of 21.5 nM and a TGI [45] of 44 nM. The GI50 [46] was 190 nM, the TGI [46] was 384 nM and the GI50 [47] was 21.9 nM. For the same molecule, the TGI [47] was 39.2 nM, the GI50 [48] was 120 nM and the TGI [48] was 282 nM. For the same molecule, the GI50 [49] was 259 nM, the TGI [49] was 641 nM and the GI50 [50] was 52.3 nM. The TGI [50] was 174 nM, the GI50 [51] was 1330 nM and the TGI [51] was 2690 nM. The GI50 [52] was 117 nM, the TGI [52] was 249 nM and the GI50 [53] was 131 nM. It also gave a TGI [53] of 265 nM, a GI50 [54] of 250 nM and a TGI [54] of 741 nM. The GI50 [55] was 567 nM, the TGI [55] was 2020 nM and the GI50 [56] was 374 nM. It also gave a TGI [56] of 916 nM, a GI50 [57] of 504 nM and a TGI [57] of 2910 nM.
